In brackets after ≈: the same amount, converted by molar mass.
Key:
[1] = biological target: AMPA receptors (rat cerebral cortical membrane homogenate); experiment: 3H-AMPA binding (Test 1): displacement of 3H-AMPA from AMPA type receptors; settings: 5 nM 3H-AMPA, 0° C., 30 min, pH 7.1
Protocol: The affinity of a substance for one or more of the different types of excitatory amino acid receptors may be studied in simple binding experiments. In essense, the method involves incubation of a particular selected radiolabelled ligand and the particular specific substance to be investigated with brain homogenate which contains the receptor. Measurement of receptor occupancy is made by determination of the radioactivity bound to the homogenate and subtraction of nonspecific binding.
AMPA receptor binding may be studied by using ^3 H-AMPA as radioligand.
The pharmacological properties of the compounds of the present invention can be illustrated by determining their capability for displacing radioactively labelled 2-amino-3-hydroxy-5-methyl-4-isoxazolepropionic acid (AMPA) from the AMPA type receptors. […]
500 μl of thawed rat cerebral cortical membrane homogenate in Tris-HCl (30 mM), CaCI2 (2.5 mM) and KSCN (100 mM) pH 7.1 were incubated at 0° C. for 30 min. with 25 μl ^3 H-AMPA (5 nM final concentration) and the test compound and buffer. Non specific binding was determined by incubation with L-glutamic acid ([…] final concentration). […] Bound radioactivity was measured by scintillation counting. IC50 was determined by Hill analysis of at least four concentrations of test compound.

[2] = test system: quisqualic acid stimulated spreading depression in chicken retina; experiment: Spreading depression (Test 2): inhibition of quisqualic acid stimulated spreading depression in chicken retina; format: cell-based; settings: Gallus gallus, 0.25 h, quisqualate 1 μg/ml, 26° C., 15 min incubation with test compound, read-out: TEST 2 IC50 (50% maximal inhibition of quisqualic acid stimulated spreading depression)
Text: The influence of glutamic add analogues on secondary effects of glutamate receptor interactions may be studied in vitro by using the phenomenon of spreading depression in chicken retina. Such experiments will provide information as to the efficades (agonist/antagonist) of the test substances. This is in contrast to binding studies, which only provide information on the affinities of the compounds for the receptor.
The pharmacological properties of the compounds of the present invention can be illustrated by determining their capability for displacing radioactively labelled 2-amino-3-hydroxy-5-methyl-4-isoxazolepropionic acid (AMPA) from the AMPA type receptors.
The antagonism is measured by determining the IC50 value which represents the concentration which produces a ,50% maximal inhibition of quisqualic acid stimulated spreading depression in chicken retina.
Spreading depression (Test 2) […]
The eyes are initially incubated in normal P.S.S. for 15-30 min. and then transferred to P.S.S. containing quisqualate (1μ g/ml). […] The time taken for an S.D. to start in each eye is measured.
After a further 15 min. of incubation in normal P.S.S. the eyes are transferred to normal P.S.S. containing the test compound and incubated for 15 min. […] The time taken for an S.D. to start in each eye is again measured. […]

Row | TEST 1 IC50 (displacement of 50% of the specific binding of 3H-AMPA) [1] | IC50 [2] | SMILES
1 | 1.3 µg/mL | 1.3 µg/mL (≈ 4.81 µM) | O=c1[nH]c2cc(C(F)(F)F)ccc2n2c(=O)[nH]nc12 [Example 3, 7-Trifluoromethyl 1,2, 4!triazolo 4,3-a!quinoxaline-1,4(2H,5H)-dione]
2 | 0.09 µg/mL | 0.47 µg/mL (≈ 2.07 µM) | N#Cc1ccc2c(c1)[nH]c(=O)c1n[nH]c(=O)n12 [Example 4, 7-Cyano 1,2,4!triazolo 4,3-a!quinoxaline-1,4(2H, 5H)-dione]

Reference: patent publication US5504085A, “Triazolo quinoxalines and their preparation and use” (Novo Nordisk A/S, priority 1991, dated 1996)
